Numbers after ± are expanded uncertainties.
Details: Liquid

vapor or sublimation pressure (498.15 K) [kPa] | vapor or sublimation pressure (523.15 K) [kPa] | vapor or sublimation pressure (553.15 K) [kPa] | vapor or sublimation pressure (583.15 K) [kPa] | vapor or sublimation pressure (613.15 K) [kPa] | vapor or sublimation pressure (638.15 K) [kPa] | vapor or sublimation pressure (653.15 K) [kPa] | Compound
681 ± 37 | 1027 ± 54 | 1601 ± 83 | 2387 ± 120 | 3451 ± 180 |  |  | CCc1ccccc1 [ethylbenzene]
 | 135 ± 8 | 245 ± 13 | 416 ± 22 | 668 ± 35 | 955 ± 49 | 1166 ± 60 | c1ccc2ncccc2c1 [quinoline]

— the NIST ThermoML archive (doi:10.1021/je034107o)
